How the values were obtained:
α2C receptor [1] = molecular target: T1, α2C receptor (Homo sapiens, UniProt P18825); experiment: GTPγS assay, efficacy agonist activity (Emax) at α2C; assay type: biochemical; conditions: for evaluated as agonist of the α2C receptor subtype: by definition: efficacy at α2C 30% Emax (GTPγS assay), functionally selective if efficacy at α2A ≦35% Emax; for evaluated as antagonist of the α2C receptor subtype: by definition: efficacy at α2C <30% Emax (GTPγS assay) and Ki <500 nM
T1 sequence (P18825 1-462): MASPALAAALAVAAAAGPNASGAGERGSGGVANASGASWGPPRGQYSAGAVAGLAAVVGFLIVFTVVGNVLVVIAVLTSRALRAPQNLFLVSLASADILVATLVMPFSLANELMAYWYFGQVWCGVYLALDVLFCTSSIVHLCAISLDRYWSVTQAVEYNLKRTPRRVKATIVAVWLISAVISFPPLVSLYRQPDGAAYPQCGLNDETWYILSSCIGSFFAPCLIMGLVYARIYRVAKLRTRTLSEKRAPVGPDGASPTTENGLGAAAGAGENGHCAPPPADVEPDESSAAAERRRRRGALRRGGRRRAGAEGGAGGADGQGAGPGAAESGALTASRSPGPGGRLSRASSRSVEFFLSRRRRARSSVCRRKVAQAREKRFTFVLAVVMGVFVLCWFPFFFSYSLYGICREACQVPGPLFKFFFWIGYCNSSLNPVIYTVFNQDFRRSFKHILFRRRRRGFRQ
Procedure: Efficacy agonist activity values (Emax, GTPγS assay) for α2A and α2C were determined by following the general procedure detailed by Umland et. al (“Receptor reserve analysis of the human α2c-adrenoceptor using [^35S]GTPγS and cAMP functional assays” European Journal of Pharmacology 2001, 411, 211-221). For the purposes of the present invention, a compound is defined to be a specific or at least functionally selective agonist of the α2C receptor subtype if the compound's efficacy at the α2C receptor is […] (GTPγS assay) and its efficacy at the α2A receptor is ≦35% Emax (GTPγS assay). Additionally, for the purposes of this invention, a compound is defined to be an antagonist of the α2C receptor subtype if the compound's efficacy at the α2C receptor is <30% Emax (GTPγS assay) and the Ki at the α2C receptor subtype was <500 nM, preferentially <200 nM, and most preferentially <20 nM.

α2C receptor [2] = molecular target: T1, α2C receptor; experiment: binding inhibition at the α2C receptor (Ki); conditions: compounds classed as α2C antagonists; read-out: Ki at the α2C receptor subtype

| SMILES | evaluated as agonist of the α2C receptor subtype (α2C receptor [1]) | Ki (α2C receptor [2]) | evaluated as antagonist of the α2C receptor subtype (α2C receptor [1]) |
| --- | --- | --- | --- |
| Cn1nccc1-c1ccc2c(c1)[C@@H]1[C@H](CO2)[C@H]1c1c[nH]cn1 (racemic) [(±)-2A] | active or functionally selective agonists |  |  |
| Cc1nn(C)c(C)c1-c1ccc2c(c1)[C@@H]1[C@H](CO2)[C@H]1c1c[nH]cn1 (racemic) [(±)-2f] |  | < 200 nM | antagonist |
| c1ncc(-c2ccc3c(c2)[C@@H]2[C@H](CO3)[C@H]2c2c[nH]cn2)cn1 (racemic) [(±)-2] |  | < 200 nM | antagonist |
| COC(=O)N(C)c1ccc2c(c1)[C@@H]1[C@H](CO2)[C@H]1c1c[nH]cn1 (racemic) [(±)-102] | active or functionally selective agonists |  |  |
| COCC(=O)N(C)c1ccc2c(c1)[C@@H]1[C@H](CO2)[C@H]1c1c[nH]cn1 (racemic) [(±)-5] | active or functionally selective agonists |  |  |
| CCN(C(=O)COC)c1ccc2c(c1)[C@@H]1[C@H](CO2)[C@H]1c1c[nH]cn1 (racemic) [(±)-100] |  | < 200 nM | antagonist |
| Cc1n[nH]c(C)c1-c1ccc2c(c1)[C@@H]1[C@H](CO2)[C@H]1c1c[nH]cn1 (racemic) [(±)-2C] | active or functionally selective agonists |  |  |
| CNc1ncnc(C)c1-c1ccc2c(c1)[C@@H]1[C@H](CO2)[C@H]1c1c[nH]cn1 (racemic) [(±)-8] | active or functionally selective agonists |  |  |
| CNc1ncncc1-c1ccc2c(c1)[C@@H]1[C@H](CO2)[C@H]1c1c[nH]cn1 (racemic) [(±)-7] |  | < 200 nM | antagonist |
| CNC(=O)N(C)c1ccc2c(c1)[C@@H]1[C@H](CO2)[C@H]1c1c[nH]cn1 (racemic) [(±)-101] | active or functionally selective agonists |  |  |
| Cc1noc(C)c1-c1ccc2c(c1)[C@@H]1[C@H](CO2)[C@H]1c1c[nH]cn1 (racemic) [(±)-2d] |  | < 200 nM | antagonist |
| c1nc([C@@H]2[C@H]3COc4ccc(-c5cn[nH]c5)cc4[C@H]32)c[nH]1 (racemic) [(±)-2e] |  | < 200 nM | antagonist |
| CCN(C(=O)NC)c1ccc2c(c1)[C@@H]1[C@H](CO2)[C@H]1c1c[nH]cn1 (racemic) [(±)-3] | active or functionally selective agonists |  |  |
| CCN(C(=O)OC)c1ccc2c(c1)[C@@H]1[C@H](CO2)[C@H]1c1c[nH]cn1 (racemic) [(±)-4] | active or functionally selective agonists |  |  |
